Test results published in patent US20220033360A1, “OPHTHALMIC COMPOSITIONS AND METHODS FOR THE TREATMENT OF SKIN DISEASES AND EYE DISEASES” (Cellix Bio Private Limited, priority 2018, published 2022).
Like-named read-outs stand apart in the source and are kept apart here.

Experiments:
5-LO = experiment: Lipoxygenase inhibitor screening assay, cell-free, 5-LO with linoleic acid as substrate; assay type: biochemical
Experimental: (§1) CLX-162C-C01 in concentrations ranging from 0.001 to 1.2 mM was added to 5-LO or 15-LO in the screening assay buffer, respectively, and the LO inhibitor screening assay was immediately started by addition of the corresponding substrates and running for 5 min. The inhibitory capacity of CLX-162C-C01 against lipoxygenases was studied in a cell-free system consisting of CLX-162C-C01 and 5-LO or 15-LO together with appropriate substrates, respectively.

15-LO = experiment: Lipoxygenase inhibitor screening assay, cell-free, 15-LO with arachidonic acid as substrate; assay type: biochemical; settings: concentrations from 0.32 to 0.93 mM
Experimental: as §1

[1] = Oxidative capacity of UCP (oxidation of methionine to methionine sulfoxide), cell-free; settings: 0.1 to 10 mM, preincubation 60 min, methionine sulfoxide formation
Experimental: The influence of CLX-162C-C01 on the oxidative capacity of UCP was studied by preincubating UCP (2 mg/ml H2O) with various concentrations of CLX-162C-C01 (0.1, 1, and 10 mM) for 60 min at room temperature in parallel with the controls. To assay the oxidative capacity of UCP, aliquots of 50 microlit (100 microgm UCP) of particle suspension taken from the preincubations were suspended in 1 ml H2O and incubated in the presence of 100 microM methionine for 2 h at 25° C. Formation of methionine sulfoxide was measured fluorometrically after precolumn derivatization with o-phthaldialdehyde and HPLC. […] The oxidative potential of the particles was subsequently determined by their capacity to oxidize […] sulfoxide. […] CLX-162C-C01 antioxidative potency to prevent the oxidation of methionine by agglomerates of ultrafine carbon particles (UCPs). Particulate stimulants such as UCP and zymosan activate lipid mediator synthesis and to induce oxidative stress in macrophages.

human 5-HT2B receptors = human 5-HT2B receptors (Homo sapiens, UniProt P41595); experiment: 5-HT2B agonist assay, intracellular calcium (Fluo-3, FLIPR) in HEK-293 cells; assay type: cell-based; settings: HEK-293 cells expressing human 5-HT2B
Sequence of human 5-HT2B receptors (P41595 whole entry): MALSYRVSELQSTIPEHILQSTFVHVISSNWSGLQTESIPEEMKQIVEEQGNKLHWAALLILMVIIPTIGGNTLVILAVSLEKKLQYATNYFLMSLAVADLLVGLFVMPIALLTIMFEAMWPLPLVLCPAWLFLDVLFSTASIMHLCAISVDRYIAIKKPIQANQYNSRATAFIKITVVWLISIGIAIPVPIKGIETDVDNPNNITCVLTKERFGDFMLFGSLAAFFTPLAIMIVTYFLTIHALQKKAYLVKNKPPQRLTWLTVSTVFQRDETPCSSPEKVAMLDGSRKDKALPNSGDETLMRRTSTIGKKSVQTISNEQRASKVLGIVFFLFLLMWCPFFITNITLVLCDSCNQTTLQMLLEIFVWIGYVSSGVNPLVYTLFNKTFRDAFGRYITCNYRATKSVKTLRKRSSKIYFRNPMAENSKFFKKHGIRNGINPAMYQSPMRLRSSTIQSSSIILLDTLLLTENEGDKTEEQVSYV
Experimental: 5-HT2B receptors stably expressing HEK-293 cells were maintained in Dulbecco's modified Eagle's medium (DMEM) supplemented with 10% fetal bovine serum and 250 microgm·mL-1 G-418. HEK-293 cells expressing human 5-HT2B receptors were seeded in […] poly-D-lysine coated plates at a density of 50,000 cells·well-1 in DMEM containing 10% (v.v-1) dialyzed fetal bovine serum and 250 microgm·mL-1 G-418. After overnight incubation, the cells were washed three times with Hank's buffered saline solution containing 2 mM CaCl2), 10 mM HEPES and 2.5 mM probenecid. The cells were incubated with 2 microM Fluo-3 AM in Hank's buffered saline solution for 60 min at 37 C. The Fluo-3 loaded cells were then washed four times with Hank's buffered saline solution. Agonist-induced changes in intracellular calcium concentrations were determined at room temperature using a Fluorometric Imaging Plate Reader.

IC50 (5-LO; linoleic acid substrate, 5 min, read-out: 50% inhibition of 5-LO): 320000 nM
EC50 (human 5-HT2B receptors; read-out: EC50, 5-HT2B agonist effect): 14.2 nM
EC50 (human 5-HT2B receptors; read-out: pEC50 (-log EC50), 5-HT2B agonist effect (converted)): 490 nM
Compound: Cc1cc(C(C)(C)C)c(O)c(C)c1CC1=NCCN1 [CLX-162C-C01, 2-(4-(tert-butyl)-3-hydroxy-2,6-dimethylbenzyl)-4,5-dihydro-1Himidazol-1-ium (R)-5-(1,2-dithiolan-3-yl) pentanoate]
inhibition of the activity of 5-LO (5-LO; concentrations from 0.32 to 0.93 mM): strongly inhibited
inhibition of the activity of 15-LO (15-LO): only marginally affected
effect on oxidative capacity of UCP [1]: did not reduce
